Measurements reported in publication PMC9960930, “Saponin and Fatty Acid Profiling of the Sea Cucumber Holothuria atra, α-Glucosidase Inhibitory Activity and the Identification of a Novel Triterpene Glycoside” (Nutrients, 2023).
Values after ≈ are worked out from the molar mass of the structure shown. Where two headings read alike, the source gives them in different places. One block for each compound: values may come before it.

Legend:
[1] = solubility in NMR solvent; details: noticed when preparing the compounds for NMR analysis
diabetic mice = tested on: diabetic mice; set-up: method as in PMID 26932154; details: treatment of diabetic mice; cited from earlier work
α-glucosidase [2] = tested on: α-glucosidase; set-up: method as in PMID 26932154; details: cited from earlier work
α-glucosidase [3] = target: α-glucosidase; set-up: method as in PMID 22416705; details: cited from earlier work; for IC50 against α-glucosidase: fatty acids from body wall of S. japonicus; for α-glucosidase inhibitory activity: purified from body wall of S. japonicus
α-glucosidase [4] = target: α-glucosidase; set-up: method as in PMID 25735900; details: cited from earlier work; for IC50: purified from S. japonicas, read-out: IC50 against α-glucosidase; for α-glucosidase inhibitory activity: purified from internal organs of S. japonicus
[5] = target: α-glucosidase from Saccharomyces cerevisiae; experiment: α-glucosidase inhibition assay (PNPG substrate); type: biochemical; details: commercial pure fatty acids; acarbose positive control; three repeats; read-out: IC50 against α-glucosidase
Procedure: The reference standard for the GC-MS analysis was a Supelco 37 Component FAME mix from Sigma Aldrich (Sigma-Aldrich Chemie GmbH, Steinheim, Germany). Pure fatty acids, including palmitoleic acid (≥98.5%), arachidonic acid, and eicosapentaenoic acid (≥99%), were purchased from Sigma Aldrich (Sigma-Aldrich Chemie GmbH, Steinheim, Germany).
The α-glucosidase inhibition was assessed using the method described by Su et al. (2013 and Trinh et al. (2016), with a slight modification. In total, 100 μL of the α-glucosidase enzyme solution from Saccharomyces cerevisiae (0.2 U/mL in a 0.1 M phosphate buffer at pH 6.8) and 50 μL of the sample dissolved in the phosphate buffer containing 6% DMSO 0.25–20 mg/mL), and were incubated in a transparent 96-well plate at 37 °C for 15 min. Next, 50 μL of PNPG (5 mM in a 0.1 m phosphate buffer) was added. The PNPG was hydrolyzed to release p-nitrophenyl (PNP), and this process was monitored at 405 nm for 30 min at 37 °C, with a BioTek Eon microplate reader (Winooski, VT, USA)) using the Gen5 version 2.06 software. […] The IC50 values were calculated with GraphPad Prism 6 software (GraphPad Software Inc, La Jolla, CA, USA). The IC50 values were subjected to one-way analysis of variance (ANOVA) and the Tukey post hoc test, using GraphPad Prism 6 software to assess any significant differences among the treatments. P-values < 0.05 were considered significant.

α-glucosidase [6] = target: α-glucosidase; set-up: method as in PMID 23355366; details: read-out: IC50 against α-glucosidase; cited from earlier work

Structure (SMILES): CC1OC(OC2C(OC3CCC4(C)C5=CC(O)C67C(=O)OC(C)(C8CCC(C)(C)O8)C6(O)CCC7(C)C5CCC4C3(C)C)OCC(O)C2O)C(O)C(O)C1O (stereo not drawn) [compound 1, desholothurin B]
solubility in methanol-d4 [1]: soluble

Structure (SMILES): COC1C(O)C(CO)OC(OC2C(O)C(CO)OC(OC3C(C)OC(OC4C(OC5CCC6(C)C7=CC(O)C89C(=O)OC(C)(CCCC(C)C)C8(O)CCC9(C)C7CCC6C5(C)C)OCC(OS(=O)(=O)O)C4O)C(O)C3O)C2O)C1O.[Na+] (stereo not drawn) [echinoside A]
postprandial blood glucose levels (diabetic mice): suppressed postprandial blood glucose levels | α-glucosidase activity (α-glucosidase [2]): inhibited

Structure (SMILES): CCCCCCCCCC/C=C\CCCCCC(=O)O [7(Z)-octadecenoic acid]
IC50 against α-glucosidase (α-glucosidase [3]): 0.51 ± 0.02 µg/mL (≈ 1.81 µM) | α-glucosidase inhibitory activity (α-glucosidase [3]): strong

Structure (SMILES): CCCCCC/C=C\CCCCCCCC(=O)OCC(O)COC(=O)CCCCCCC/C=C\CCCCCC [1,3-Dipalmitolein]
IC50 (α-glucosidase [4]): 4.45 µM | α-glucosidase inhibitory activity (α-glucosidase [4]): strong

Structure (SMILES): CO[C@@H]1[C@@H](O)[C@H](O[C@@H]2[C@@H](O)[C@H](O[C@H]3[C@H](O)[C@@H](O)[C@H](O[C@H]4[C@H](O[C@H]5CC[C@]6(C)C7=C[C@H](O)[C@@]89C(=O)O[C@@](C)(C%10CCC(C)(C)O%10)[C@@]8(O)CC[C@@]9(C)[C@@H]7CC[C@H]6C5(C)C)OC[C@@H](OS(=O)(=O)O)[C@@H]4O)O[C@@H]3C)O[C@H](CO)[C@H]2O)O[C@H](CO)[C@H]1O (stereo partly drawn) [holothurin A]
postprandial blood glucose levels (diabetic mice): suppressed postprandial blood glucose levels | α-glucosidase activity (α-glucosidase [2]): inhibited

Structure (SMILES): CCCCCCC/C=C\C/C=C\CCCCCC(=O)O [7(Z),10(Z)-octadecadienoic acid]
IC50 against α-glucosidase (α-glucosidase [3]): 0.49 ± 0.05 µg/mL (≈ 1.75 µM) | α-glucosidase inhibitory activity (α-glucosidase [3]): strong

IC50 [5]: 320 ± 32 µM
Structure (SMILES): CCCCCC/C=C\CCCCCCCC(=O)O [Palmitoleic acid]
IC50 (α-glucosidase [6]): 265 ± 2 µM

IC50 [5]: 596 ± 44 µM
Structure (SMILES): CCCCC/C=C\C/C=C\C/C=C\C/C=C\CCCC(=O)O [Arachidonic acid]
IC50 (α-glucosidase [6]): 211 ± 2 µM

Structure (SMILES): CCCCCCCC/C=C\CCCCCCCC(=O)O [cis-9-octadecenoic acid]
IC50 (α-glucosidase [4]): 14.9 µM | α-glucosidase inhibitory activity (α-glucosidase [4]): strong

IC50 [5]: 541 ± 39 µM
Structure (SMILES): CC/C=C\C/C=C\C/C=C\C/C=C\C/C=C\CCCC(=O)O [Eicosapentaenoic acid]
